For data set [1], the target named is Bromodomain-containing protein 2 (Homo sapiens) (UniProt P25440). Nature of the data set: Inhibition of human partial length BRD2 bromodomain 2 isoform 1 (E348 to D455 residues) expressed in Escherichia coli BL21 assessed as residual activity at 1 uM after 1 hr by qPCR method relative to control.
Data set [2] deals with Bromodomain-containing protein 3 (Homo sapiens) (UniProt Q15059). In words: Inhibition of human partial length BRD3 bromodomain 2 (G306 to P416 residues) expressed in Escherichia coli BL21 assessed as residual activity at 1 uM after 1 hr by qPCR method relative to control.
Sequence of Bromodomain-containing protein 3 (Homo sapiens) (Q15059 2-726 limits assumed): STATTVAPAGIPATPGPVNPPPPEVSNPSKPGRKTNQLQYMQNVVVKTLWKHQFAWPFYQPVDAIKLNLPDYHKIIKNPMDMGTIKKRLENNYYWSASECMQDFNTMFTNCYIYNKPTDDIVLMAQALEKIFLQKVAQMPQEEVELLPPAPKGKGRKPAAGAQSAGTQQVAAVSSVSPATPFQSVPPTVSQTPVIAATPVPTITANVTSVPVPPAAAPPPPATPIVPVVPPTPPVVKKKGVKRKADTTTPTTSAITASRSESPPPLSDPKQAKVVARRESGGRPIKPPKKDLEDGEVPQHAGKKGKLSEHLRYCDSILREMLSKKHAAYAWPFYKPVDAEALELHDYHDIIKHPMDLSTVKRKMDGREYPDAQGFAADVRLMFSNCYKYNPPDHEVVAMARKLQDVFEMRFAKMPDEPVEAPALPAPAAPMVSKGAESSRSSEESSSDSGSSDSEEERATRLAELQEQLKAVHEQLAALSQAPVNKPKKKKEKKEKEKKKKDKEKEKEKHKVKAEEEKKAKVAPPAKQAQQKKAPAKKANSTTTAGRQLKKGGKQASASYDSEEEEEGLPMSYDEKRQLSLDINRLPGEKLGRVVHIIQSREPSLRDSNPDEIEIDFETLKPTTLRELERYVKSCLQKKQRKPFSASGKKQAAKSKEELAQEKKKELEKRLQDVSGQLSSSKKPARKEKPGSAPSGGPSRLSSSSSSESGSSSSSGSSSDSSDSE
Data set [3] deals with Bromodomain-containing protein 9 (Homo sapiens) (UniProt Q9H8M2). Nature of the data set: Inhibition of human partial length BRD9 (R130 to V259 residues) expressed in Escherichia coli BL21 assessed as residual activity at 1 uM after 1 hr by qPCR method relative to control.
Sequence of Bromodomain-containing protein 9 (Homo sapiens) (Q9H8M2 whole entry, the tested form may be a part): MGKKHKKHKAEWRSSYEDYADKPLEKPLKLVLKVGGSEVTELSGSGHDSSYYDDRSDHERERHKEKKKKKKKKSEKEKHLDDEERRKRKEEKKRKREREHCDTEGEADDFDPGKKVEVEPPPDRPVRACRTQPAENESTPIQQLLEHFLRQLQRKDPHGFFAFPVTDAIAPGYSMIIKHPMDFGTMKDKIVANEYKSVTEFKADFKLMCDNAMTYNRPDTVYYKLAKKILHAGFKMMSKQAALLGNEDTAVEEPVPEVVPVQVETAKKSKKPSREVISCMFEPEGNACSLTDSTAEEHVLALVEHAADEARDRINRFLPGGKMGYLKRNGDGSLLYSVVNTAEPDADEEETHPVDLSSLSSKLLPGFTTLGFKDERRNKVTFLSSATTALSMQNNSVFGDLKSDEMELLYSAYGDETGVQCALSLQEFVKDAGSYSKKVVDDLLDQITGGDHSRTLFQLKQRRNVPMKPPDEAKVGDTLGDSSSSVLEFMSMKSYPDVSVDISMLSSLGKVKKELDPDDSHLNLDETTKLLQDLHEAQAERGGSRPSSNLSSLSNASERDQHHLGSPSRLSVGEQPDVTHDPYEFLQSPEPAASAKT
In data set [4] the target is T1, Bromodomain-containing protein 4 (Homo sapiens, UniProt O60885). Nature of the data set: Inhibition of BRD4 in human TY82 cells assessed as downregulation of c-Myc mRNA expression at 1 uM after 24 hrs by RT-qPCR method relative to control. The class given is cell-based.
In data set [5] the target is Histone acetyltransferase KAT2A (Homo sapiens) (UniProt Q92830). In words: Inhibition of human partial length GCN5L2 (E726 to K837 residues) expressed in Escherichia coli BL21 assessed as residual activity at 1 uM after 1 hr by qPCR method relative to control.
Data set [6] has as its target Bromodomain and PHD finger-containing protein 3 (Homo sapiens) (UniProt Q9ULD4). In words: Inhibition of human partial length BRPF3 (E588 to G701 residues) expressed in Escherichia coli BL21 assessed as residual activity at 1 uM after 1 hr by qPCR method relative to control. In general terms: In qPCR the cycle at which signal appears reflects the starting amount.
For data set [7], the target named is Chromatin remodeling regulator CECR2 (Homo sapiens) (UniProt Q9BXF3). Nature of the data set: Inhibition of human partial length CECR2 (P423 to D543 residues) expressed in Escherichia coli BL21 assessed as residual activity at 1 uM after 1 hr by qPCR method relative to control.
Data set [8] has as its target Bromodomain testis-specific protein (Homo sapiens) (UniProt Q58F21). In words: Inhibition of human partial length BRDT bromodomain 2 (K250 to E382 residues) expressed in Escherichia coli BL21 assessed as residual activity at 1 uM after 1 hr by qPCR method relative to control.
Data set [9] concerns the target CREB-binding protein (Homo sapiens) (UniProt Q92793). In words: Inhibition of human partial length CREBBP (R1081 to G1197 residues) expressed in Escherichia coli BL21 assessed as residual activity at 1 uM after 1 hr by qPCR method relative to control.
The target in data set [10] is T1, Bromodomain-containing protein 4. In words: Inhibition of human partial length BRD4 bromodomain 1 long isoform (N44 to E168 residues) expressed in Escherichia coli BL21 assessed as residual activity at 1 uM after 1 hr by qPCR method relative to control.
Data set [11] has as its target Nucleosome-remodeling factor subunit BPTF (Homo sapiens) (UniProt Q12830). In words: Inhibition of human partial length FALZ (S2791 to H2911 residues) expressed in Escherichia coli BL21 assessed as residual activity at 1 uM after 1 hr by qPCR method relative to control.
For data set [12], the target named is Bromodomain testis-specific protein (Homo sapiens) (UniProt Q58F21). Nature of the data set: Inhibition of human partial length BRDT bromodomain 1 (N21 to E137 residues) expressed in Escherichia coli BL21 assessed as residual activity at 1 uM after 1 hr by qPCR method relative to control.
Data set [13] can be described thus: Tmax in ICR (CD-1) mouse at 10 mg/kg, po. The data set is classed as ADME, organism-based. The note with it: in vivo.
Data set [14] concerns the target Protein polybromo-1 (Homo sapiens) (UniProt Q86U86). In words: Inhibition of human partial length PBRM1 bromodomain 2 (S178 to E291 residues) expressed in Escherichia coli BL21 assessed as residual activity at 1 uM after 1 hr by qPCR method relative to control.
Data set [15] has as its target Bromodomain and WD repeat-containing protein 1 (Homo sapiens) (UniProt Q9NSI6). In words: Inhibition of human partial length BRWD1 (A1310 to E1430 residues) expressed in Escherichia coli BL21 assessed as residual activity at 1 uM after 1 hr by qPCR method relative to control.

Sequence of CREB-binding protein (Homo sapiens) (Q92793 2-2442 limits assumed): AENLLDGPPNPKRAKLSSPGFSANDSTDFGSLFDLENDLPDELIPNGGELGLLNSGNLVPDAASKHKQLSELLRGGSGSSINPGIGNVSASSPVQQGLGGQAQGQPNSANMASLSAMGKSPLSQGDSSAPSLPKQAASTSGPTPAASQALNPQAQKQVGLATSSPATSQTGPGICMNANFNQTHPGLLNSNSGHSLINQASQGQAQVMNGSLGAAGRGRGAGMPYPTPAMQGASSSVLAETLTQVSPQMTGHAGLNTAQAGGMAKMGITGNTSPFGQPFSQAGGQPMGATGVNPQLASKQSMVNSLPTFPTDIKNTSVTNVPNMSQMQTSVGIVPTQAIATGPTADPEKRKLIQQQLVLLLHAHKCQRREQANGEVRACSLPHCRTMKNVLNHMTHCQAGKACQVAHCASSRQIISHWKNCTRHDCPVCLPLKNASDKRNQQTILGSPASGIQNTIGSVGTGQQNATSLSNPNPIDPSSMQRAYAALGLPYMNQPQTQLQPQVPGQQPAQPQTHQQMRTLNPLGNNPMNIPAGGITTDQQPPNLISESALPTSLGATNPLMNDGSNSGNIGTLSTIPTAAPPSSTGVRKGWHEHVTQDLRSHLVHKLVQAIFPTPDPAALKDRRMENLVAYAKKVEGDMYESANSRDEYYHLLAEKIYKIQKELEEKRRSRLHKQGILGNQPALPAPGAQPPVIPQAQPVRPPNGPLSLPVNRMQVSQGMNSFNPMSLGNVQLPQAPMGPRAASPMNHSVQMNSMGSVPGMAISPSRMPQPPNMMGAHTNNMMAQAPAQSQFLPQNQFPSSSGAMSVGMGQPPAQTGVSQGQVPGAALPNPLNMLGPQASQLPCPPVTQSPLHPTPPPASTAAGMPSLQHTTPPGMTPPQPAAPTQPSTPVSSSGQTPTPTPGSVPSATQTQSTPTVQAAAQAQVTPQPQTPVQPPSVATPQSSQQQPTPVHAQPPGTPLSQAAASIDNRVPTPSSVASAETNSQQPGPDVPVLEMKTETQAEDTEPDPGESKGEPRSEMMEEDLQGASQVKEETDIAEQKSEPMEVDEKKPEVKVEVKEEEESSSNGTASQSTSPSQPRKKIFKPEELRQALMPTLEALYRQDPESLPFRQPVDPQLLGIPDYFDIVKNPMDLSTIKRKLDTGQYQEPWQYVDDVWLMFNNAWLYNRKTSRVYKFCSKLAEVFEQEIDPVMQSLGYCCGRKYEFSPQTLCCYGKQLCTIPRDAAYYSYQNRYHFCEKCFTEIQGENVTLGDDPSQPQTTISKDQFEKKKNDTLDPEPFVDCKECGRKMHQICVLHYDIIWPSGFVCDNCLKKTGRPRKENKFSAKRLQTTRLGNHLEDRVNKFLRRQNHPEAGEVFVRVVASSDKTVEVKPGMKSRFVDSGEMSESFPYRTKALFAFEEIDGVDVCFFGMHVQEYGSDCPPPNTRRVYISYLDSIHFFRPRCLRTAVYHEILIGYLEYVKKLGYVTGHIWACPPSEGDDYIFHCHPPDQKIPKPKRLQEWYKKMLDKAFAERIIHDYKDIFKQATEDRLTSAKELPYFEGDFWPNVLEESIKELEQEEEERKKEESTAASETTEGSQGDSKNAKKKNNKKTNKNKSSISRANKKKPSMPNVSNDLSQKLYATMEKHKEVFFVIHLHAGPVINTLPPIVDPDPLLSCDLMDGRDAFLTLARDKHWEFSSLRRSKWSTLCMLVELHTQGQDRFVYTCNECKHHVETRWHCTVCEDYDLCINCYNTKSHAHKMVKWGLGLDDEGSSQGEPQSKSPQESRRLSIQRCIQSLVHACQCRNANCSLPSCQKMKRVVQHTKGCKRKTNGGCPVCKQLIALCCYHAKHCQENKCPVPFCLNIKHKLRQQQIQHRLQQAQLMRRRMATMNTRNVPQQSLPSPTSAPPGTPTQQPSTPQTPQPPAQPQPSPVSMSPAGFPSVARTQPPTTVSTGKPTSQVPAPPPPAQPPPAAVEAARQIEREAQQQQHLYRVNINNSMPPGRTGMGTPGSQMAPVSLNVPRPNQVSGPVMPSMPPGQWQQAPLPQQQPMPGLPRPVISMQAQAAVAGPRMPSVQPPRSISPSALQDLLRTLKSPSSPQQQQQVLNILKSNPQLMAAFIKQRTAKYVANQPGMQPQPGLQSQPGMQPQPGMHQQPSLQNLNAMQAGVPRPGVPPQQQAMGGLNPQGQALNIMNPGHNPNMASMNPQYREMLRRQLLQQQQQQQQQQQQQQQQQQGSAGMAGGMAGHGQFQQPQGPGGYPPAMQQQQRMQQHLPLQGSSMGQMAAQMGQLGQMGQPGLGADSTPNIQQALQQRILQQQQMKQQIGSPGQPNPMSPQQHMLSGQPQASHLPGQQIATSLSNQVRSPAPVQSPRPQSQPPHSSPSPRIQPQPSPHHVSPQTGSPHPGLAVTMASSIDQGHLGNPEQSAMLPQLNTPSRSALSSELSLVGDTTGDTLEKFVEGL
Sequence of Bromodomain and PHD finger-containing protein 3 (Homo sapiens) (Q9ULD4 whole entry, the tested form may be a part): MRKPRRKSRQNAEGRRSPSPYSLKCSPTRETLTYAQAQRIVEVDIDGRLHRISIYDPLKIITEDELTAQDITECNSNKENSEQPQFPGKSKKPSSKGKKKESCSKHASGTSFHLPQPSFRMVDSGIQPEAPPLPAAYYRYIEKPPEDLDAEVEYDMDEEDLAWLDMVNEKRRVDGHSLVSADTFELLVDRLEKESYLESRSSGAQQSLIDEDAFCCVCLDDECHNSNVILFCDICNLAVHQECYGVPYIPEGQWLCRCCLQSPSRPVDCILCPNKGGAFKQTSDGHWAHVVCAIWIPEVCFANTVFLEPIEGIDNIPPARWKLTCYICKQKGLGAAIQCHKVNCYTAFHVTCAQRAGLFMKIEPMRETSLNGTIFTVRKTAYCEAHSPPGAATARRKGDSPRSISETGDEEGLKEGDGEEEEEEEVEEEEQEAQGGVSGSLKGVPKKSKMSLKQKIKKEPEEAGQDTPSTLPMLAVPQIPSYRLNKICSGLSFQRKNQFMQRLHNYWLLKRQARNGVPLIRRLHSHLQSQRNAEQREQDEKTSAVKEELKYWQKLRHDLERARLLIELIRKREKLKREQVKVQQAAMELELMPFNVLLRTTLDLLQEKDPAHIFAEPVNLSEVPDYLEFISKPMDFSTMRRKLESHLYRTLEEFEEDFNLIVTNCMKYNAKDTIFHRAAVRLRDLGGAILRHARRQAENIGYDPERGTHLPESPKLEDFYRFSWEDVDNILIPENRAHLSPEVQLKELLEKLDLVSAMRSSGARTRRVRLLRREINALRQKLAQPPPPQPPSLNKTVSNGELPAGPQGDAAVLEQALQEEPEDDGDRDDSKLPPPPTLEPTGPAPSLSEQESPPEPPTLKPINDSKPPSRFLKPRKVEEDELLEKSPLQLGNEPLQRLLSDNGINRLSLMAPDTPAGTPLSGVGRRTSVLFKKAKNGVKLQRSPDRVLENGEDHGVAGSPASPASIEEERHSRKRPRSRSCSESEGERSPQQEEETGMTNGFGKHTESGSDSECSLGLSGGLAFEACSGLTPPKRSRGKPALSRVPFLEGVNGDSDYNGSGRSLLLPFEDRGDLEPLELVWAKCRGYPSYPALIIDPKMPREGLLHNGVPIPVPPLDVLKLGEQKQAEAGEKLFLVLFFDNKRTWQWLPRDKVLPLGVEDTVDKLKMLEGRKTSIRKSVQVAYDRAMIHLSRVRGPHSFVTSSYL

Usually inhibition stands for how much of the control response was suppressed. As usually defined, the Tmax is the time from dosing to the highest level. Turning to `Cc1ccc([C@H](C)Nc2ccc3c(c2)N(C2CC2)[C@H](C)C(=O)N3C)c(C)c1`, the Activity in data set [1] turned out to be 0%; in data set [2], 0.3%; in data set [3], 77%; in [5], 63%; in [6], 100%; in data set [7] it was 83%. The Activity in data set [8] stood at 0%; in [9], 67%; in data set [10], 1.7%; in [11], 96%; in [12], 3.1%; in data set [14] it was 100%. For the same compound, in [15], the Activity was 73%. For the same compound, the inhibition in [4] was greater than 60%. The Tmax in [13] was determined as 19.8 min.

(Values after ChEMBL document CHEMBL4130345, “Discovery of a series of dihydroquinoxalin-2(1H)-ones as selective BET inhibitors from a dual PLK1-BRD4 inhibitor” (Eur J Med Chem, 2017).)
